# Assay results: patent US20060160701A1, “Natural herbicidal agent containing momilactones A and B identified in and isolated from rice hulls” (Konkuk University Industrial Cooperation Corp., priority 2005, published 2006)
# Assays:
# lettuce seeds = details: derivatives of momilactones A and B; Kato et al., Phytochemistry 16, 1977; cited from earlier work
# rice roots = details: derivatives of momilactones A and B; Kato et al., Phytochemistry 16, 1977; cited from earlier work
# Cyperus difformis L. = test: Germination assay in culture tube (GACT), Cyperus difformis seeds; type: in vivo; details: I: Cyperus difformis L., seven days
# Procedure: (§1) The momilactones thus isolated and purified according to the method were dissolved in acetone containing a non-ionic surfactant, Tween-20, and diluted with ½ hunter medium, thus generating a growth/germination inhibition solution. The solution contained acetone and Tween-20 in final concentrations of 1% and 0.01% by weight, respectively. The acetone and Tween-20 were found not to cause growth or germination inhibition.
# (§2) Seeds of three weed species, Leptochloa chinensis L., Amaranthus retroflexus L. and Cyperus difformis L., which were collected on October 2002 and stored at −35° C. after floating matter was removed using distilled water, were used in this test.
# (§3) The weed seeds were surface-sterilized in a 1:10 (v/v) dilution of an aqueous hypochlorite solution for 10 min and washed with distilled water several times according to a method described by Choi et al. (CHOI, J. S. et al., Korean J. Weed Sci., 22, 339-413, 2002).
# (§4) 650 mg of sea sand was placed into disposable culture tubes (12×75 mm), which contained the growth/germination inhibition solution at concentrations of 4, 20, 100 and 1000 ppm. 2 mg of each seed of the three weed species was added to the tubes, and was then incubated in a growth chamber (25° C., 12 h photoperiod, 20 μmol/m^2s).
# (§5) After seven days, percentage germination of the weed seeds was determined. Using the percentage germination, the inhibitory effects of the growth/germination inhibition solution on germination and fresh weight of the seeds were evaluated. • Germination inhibition (%)=[(control−test group)/control]×100 • Fresh weight inhibition (%)=[(control−test group)/control]×100
# [1] = test system: Amaranthus retroflexus L.; test: Germination assay in culture tube (GACT), Amaranthus retroflexus seeds; type: in vivo; details: III: Amaranthus retroflexus L., seven days
# Procedure: as §1, §2, §3, §4, §5
# [2] = test system: duckweed (Lemna paucicostata Hegelm 381); test: Bioactivity assay using duckweed (Lemna assay); type: in vivo; details: 5 days; for Visual injury symptoms (%): scale 0 (no effect) to 100 (complete death)
# Procedure: as §1
# After 2 ml of the growth/germination inhibition solution, prepared in Example, was aliquotted in triplets into a 24-well plate, one duckweed plant having four fronds was transplanted into each well. The plate was incubated in a growth chamber (26° C., 14 h photoperiod, 50 μmol/m^2s) for 5 days. Herbicidal activity was determined by visual scoring and by measuring the chlorophyll content.
# The chlorophyll was extracted in DMSO (dimethyl sulfoxide), and absorbance was measured using a UV-VIS spectrophotometer. The chlorophyll content was determined based on the absorbance data according to a method described by Hiscox and Israelstam (Hiscox, J. D. and Israelstam, G. F., Can. J. Bot., 57, 1332-1334, 1979).
# The inhibitory effects of the compounds on chlorophyll content in duckweed were expressed as a percentage (%) of the corresponding values obtained for a control.
# Thus, a minus value indicates growth stimulation, and a plus value indicates growth inhibition. • Chlorophyll content (μg/ml)=2.367×(absorbance)^2+6.299×absorbance+0.169 (r=0.999) • Inhibition of chlorophyll content (%)=[(control-test group)/control]×100
# [3] = test system: Leptochloa chinensis (L.) Ness; test: Germination assay in culture tube (GACT), Leptochloa chinensis seeds; type: in vivo; details: II: Leptochloa chinensis (L.) Ness, seven days
# Procedure: as §1, §2, §3, §4, §5
# [4] = test system: three weed species, Leptochloa chinensis L., Amaranthus retroflexus L. and Cyperus difformis L.; test: Germination assay in culture tube (GACT), three weed species taken together; type: in vivo; details: 20 ppm
# Procedure: as §1, §2
# The weed seeds were surface-sterilized in a 1:10 (v/v) dilution of an aqueous hypochlorite solution for 10 min and washed with distilled water several times according to a method described by Choi et al. (CHOI, J. S. et al., Korean J. Weed Sci., 22, 339-413, 2002). […]
# as §5
# rice seedlings = details: Kato-Naguchi et al., Physiologia Plantarum 115, 2002; cited from earlier work
compound,measurement,setting,value
3-hydro momilactone A,inhibition of the germination of lettuce seeds,lettuce seeds,strongest inhibitory activity
same,inhibition of the growth of rice roots,rice roots,strongest inhibitory activity
C=C[C@]1(C)CC[C@@H]2C(=C[C@H]3OC(=O)[C@@]4(C)C(=O)CC[C@@]2(C)[C@@H]34)C1 [Momilactone A],Fresh weight inhibition (%),Cyperus difformis L.; 4 ppm,0%
same,Germination inhibition (%),Cyperus difformis L.; 4 ppm,20%
same,Fresh weight inhibition (%),Cyperus difformis L.; 20 ppm,100%
same,Germination inhibition (%),Cyperus difformis L.; 20 ppm,97.5%
same,Fresh weight inhibition (%),Cyperus difformis L.; 100 ppm,100%
same,Germination inhibition (%),Cyperus difformis L.; 100 ppm,100%
same,Fresh weight inhibition (%),Cyperus difformis L.; 1000 ppm,100%
same,Germination inhibition (%),Cyperus difformis L.; 1000 ppm,100%
same,Fresh weight inhibition (%),[1]; 4 ppm,0%
same,Germination inhibition (%),[1]; 4 ppm,20%
same,Fresh weight inhibition (%),[1]; 20 ppm,18.6%
same,Germination inhibition (%),[1]; 20 ppm,20%
same,Fresh weight inhibition (%),[1]; 100 ppm,33.3%
same,Germination inhibition (%),[1]; 100 ppm,30%
same,Fresh weight inhibition (%),[1]; 1000 ppm,100%
same,Germination inhibition (%),[1]; 1000 ppm,100%
same,Inhibition of chlorophyll content (%),[2]; 1 ppm,27.0%
same,Visual injury symptoms (%),[2]; 1 ppm,20%
same,Inhibition of chlorophyll content (%),[2]; 3.3 ppm,52.3%
same,Visual injury symptoms (%),[2]; 3.3 ppm,50%
same,Inhibition of chlorophyll content (%),[2]; 10 ppm,85.8%
same,Visual injury symptoms (%),[2]; 10 ppm,70%
same,Inhibition of chlorophyll content (%),[2]; 33 ppm,95.6%
same,Visual injury symptoms (%),[2]; 33 ppm,90%
same,Inhibition of chlorophyll content (%),[2]; 100 ppm,98.9%
same,Visual injury symptoms (%),[2]; 100 ppm,95%
same,Fresh weight inhibition (%),[3]; 4 ppm,0%
same,Germination inhibition (%),[3]; 4 ppm,0%
same,Fresh weight inhibition (%),[3]; 20 ppm,0%
same,Germination inhibition (%),[3]; 20 ppm,0%
same,Fresh weight inhibition (%),[3]; 100 ppm,48.4%
same,Germination inhibition (%),[3]; 100 ppm,70%
same,Fresh weight inhibition (%),[3]; 1000 ppm,100%
same,Germination inhibition (%),[3]; 1000 ppm,100%
C=C[C@]1(C)CC[C@@H]2C(=C[C@H]3OC(=O)[C@]4(C)[C@H]3[C@]23CC[C@@]4(O)OC3)C1 [Momilactone B],Fresh weight inhibition (%),Cyperus difformis L.; 4 ppm,15%
same,Germination inhibition (%),Cyperus difformis L.; 4 ppm,23.3%
same,Fresh weight inhibition (%),Cyperus difformis L.; 20 ppm,100%
same,Germination inhibition (%),Cyperus difformis L.; 20 ppm,100%
same,Fresh weight inhibition (%),Cyperus difformis L.; 100 ppm,100%
same,Germination inhibition (%),Cyperus difformis L.; 100 ppm,100%
same,Fresh weight inhibition (%),Cyperus difformis L.; 1000 ppm,100%
same,Germination inhibition (%),Cyperus difformis L.; 1000 ppm,100%
same,inhibition of germination of all tested weed species,[4],completely inhibited
same,inhibition of growth of all tested weed species,[4],completely inhibited
same,Fresh weight inhibition (%),[1]; 4 ppm,12.5%
same,Germination inhibition (%),[1]; 4 ppm,15%
same,Fresh weight inhibition (%),[1]; 20 ppm,100%
same,Germination inhibition (%),[1]; 20 ppm,100%
same,Fresh weight inhibition (%),[1]; 100 ppm,100%
same,Germination inhibition (%),[1]; 100 ppm,100%
same,Fresh weight inhibition (%),[1]; 1000 ppm,100%
same,Germination inhibition (%),[1]; 1000 ppm,100%
same,inhibition of the growth of rice seedlings,rice seedlings,inhibiting the growth of rice seedlings
same,Inhibition of chlorophyll content (%),[2]; 1 ppm,33.9%
same,Visual injury symptoms (%),[2]; 1 ppm,20%
same,Inhibition of chlorophyll content (%),[2]; 3.3 ppm,91.9%
same,Visual injury symptoms (%),[2]; 3.3 ppm,70%
same,Inhibition of chlorophyll content (%),[2]; 10 ppm,98.3%
same,Visual injury symptoms (%),[2]; 10 ppm,98%
same,Inhibition of chlorophyll content (%),[2]; 33 ppm,100%
same,Visual injury symptoms (%),[2]; 33 ppm,100%
same,Visual injury symptoms (%),"[2]; 33 ppm, listed as momilactone B",complete death
same,Inhibition of chlorophyll content (%),[2]; 100 ppm,100%
same,Visual injury symptoms (%),[2]; 100 ppm,100%
same,Visual injury symptoms (%),"[2]; 100 ppm, listed as momilactone B",complete death
same,Fresh weight inhibition (%),[3]; 4 ppm,23.3%
same,Germination inhibition (%),[3]; 4 ppm,100%
same,Fresh weight inhibition (%),[3]; 20 ppm,100%
same,Germination inhibition (%),[3]; 20 ppm,100%
same,Fresh weight inhibition (%),[3]; 100 ppm,100%
same,Germination inhibition (%),[3]; 100 ppm,100%
same,Fresh weight inhibition (%),[3]; 1000 ppm,100%
same,Germination inhibition (%),[3]; 1000 ppm,100%
acetyl momilactone B,inhibition of the germination of lettuce seeds,lettuce seeds,strongest inhibitory activity
same,inhibition of the growth of rice roots,rice roots,strongest inhibitory activity
